Several values for one entry are separate records, joined by “and”; a condition that tells them apart may be missing. Equal values may be shown once. Entries after “also recorded” stand apart in the source; their conditions may differ.
Experiments:
[1] = Clinical chemistry, hematology, weight and clinical observation of treated monkeys; format: in vivo, rhesus macaques (Macaca mulatta); details: rhesus monkey, in vivo
Method: (§1) Monkeys were treated according to the schedule shown in Table 1 (stratification of treatment groups is given in the supplemental material). During treatment, monkeys were weighed daily and received the compound via gavage, followed by gastric feeding (weight change during treatment is shown in Table S6 in the supplemental material). Monkeys in the prophylaxis groups (groups 691-proph and 599-proph) were treated ∼20 min after the i.v. sporozoite injection. The other monkeys were treated when all the monkeys in the experiment (except those in the prophylaxis group) were blood-stage patent (at day 11 p.i.). To kill the blood-stage parasites, all monkeys received a 5-day treatment of 7.5 mg/kg of body weight of chloroquine (CQ) (intramuscular [i.m.] injection), during compound dosing. KDU691 was formulated in 0.5% methylcellulose and 0.5% Tween 80 in water. LMV599 was formulated as a solid dispersion in a solution containing 5.6% (wt/wt) Tween 80–44.4% hydroxypropyl methylcellulose (HPMC) E3–38.9% Soluplus–11.1% vitamin E D-alphatocopheryl polyethylene glycol 1000 succinate (TPGS).
Blood samples were collected for clinical evaluation and pharmacokinetic (PK) analysis (see Table S2 in the supplemental material).
When the first relapse was observed, monkeys of the KDU691 experiment were radically cured with primaquine (PQ)/CQ (oral administration of 1.8 mg/kg PQ for 14 days together with i.m. administration of 7.5 mg/kg CQ for the first five days of PQ treatment) to cure both blood stage and liver stage parasites, […]
The monkeys of the LMV599/PQ experiment were cured with a five day CQ treatment (7.5 mg/kg, i.m. administration) at the first relapse and were monitored until the second relapse after which they were cured with CQ (7.5 mg/kg, intramuscular (i.m.) for five days) plus PQ (1.8 mg/kg for 14 days).
Table S2: PK and clinical blood sampling schedule in monkeys.
Groups are named 691 for KDU691 and 599 for LMV599 treatment groups, followed by -C for control group (no compound), -proph for prophylactic treatment (treated immediately after infection), and -RC for radical cure treatment (treated when blood stage positive). […]
the face and chest areas were very yellow. Therefore the 691-RC group (treated from d11 to d15 pi) was monitored by daily clinical chemistry analysis during dosing to be compared with untreated 691-C. […]
sampling of the single dose prophylaxis group at day 0, 1, 7 and 100. The lack of aberrant clinical […]
as radical cure compound, during which also clinical sampling was performed daily. a: only clinical chemistry samples were taken. *: t = 24 sample was taken only on the 1st day of dosing.
Group name Clin. chem PK sampling PK time points
Hematology (h post dosing)
691-proph 1st and 5th day of dosing t = 0, 1, 4, 6 and 24*
691-RC Dailya 1st and 5th day of dosing t = 0, 1, 4, 6 and 24* […]
599-RC Daily 1st and 4th day of dosing t = 0, 1, 2, 4 and 24
Clinical chemistry and hematology
For the clinical analysis serum from 1 mL of clotted blood was analysed using the Cobas Integra 400 plus fully automated chemistry analyser. The following clinical parameters were determined: Alkaline phosphatase; Alanine Aminotransferase; Albumin: Aspartate aminotransfeasr; Bilirubin; Calcium; Cholesterol; Creatine kinase; Creatinine; C-reactive protein: Iron; Phosphate; Gamma-glutamyl transpeptidase; Glucose; Hemoglobin; Potassium; Lactate dehydrogenase; Sodium; Total protein; Urea Haematological parameters were determined from 1 mL EDTA-blood with a Sysmex XT-2000iV automated system. The following hematological parameters were determined: Basophilic granulocytes; Eosinophilic granulocytes; Erythrocytes; Hematocrit; Leucocytes; Leucocyte differentiation; Lymphocytes; Mean corpusculair hemoglobin; Mean corpusculair hemoglobin concentration; Mean corpusculair volume; Neutrophilic granulocytes; Red cell distribution width; Thrombocytes […]
Liver tissue samples were excised, dipped in PBS, gently blotted with absorbent paper, dried, weighed and stored at -20 °C until further analysis. […]

[2] = tested on: P. cynomolgi sporozoite-infected rhesus macaques (hypnozoites, relapse); experiment: Radical cure in P. cynomolgi sporozoite-infected rhesus macaques; format: in vivo, Plasmodium cynomolgi
Method: Sporozoites were harvested from P. cynomolgi-infected mosquitoes, washed with phosphate-buffered saline (PBS), and diluted to 100,000 sporozoites (spz)/ml in PBS. One-milliliter aliquots of sporozoites were prepared and injected into monkeys via intravenous (i.v.) injection.
as §1
Parasitemia was closely monitored by thin-film analysis. Animals were trained to present for thigh pricks, which was followed by a reward. Thin-film slides were stained with 20% Giemsa stain, and at least 50 fields (±20,000 erythrocytes [RBCs]) were analyzed with a bright-field microscope (×1,200 magnification). As soon as all monkeys other than the prophylactic treatment groups were blood-stage positive, treatment was started as indicated above (Table 1). After the last day of compound dosing, the absence of blood-stage parasites was confirmed by thin smears. From day 23 p.i., monkeys were monitored daily for relapses. The KDU691 radical-cure (group 691-RC) treatment and control groups were monitored until the first relapse. The LMV599 control (group 599-C), radical-cure (group 599-RC), and PQ radical-cure (group PQ-RC) treatment groups were monitored until the second relapse or until day 100 p.i. (whichever came first). At the end of the study, monkeys that had relapsed received a 14-day primaquine treatment, with a final check 2 weeks after the last primaquine dose.
P. cynomolgi sporozoite production
A monkey was infected with […] P. cynomolgi M strain blood stage parasites, thawed from a first passage stock (i.e. blood stage parasites from a monkey infected with P. cynomolgi M strain sporozoites). For each batch of sporozoites needed, a single monkey was infected with P. cynomolgi blood stage parasites.
At day 11 and 12 post infection 9 mL infected blood was collected into a Lithium-heparinised tube. The blood was kept at 38°C and fed approximately 500 three to five days old female Anopheles stephensi mosquitoes Sind-Kasur strain Nijmegen (Nijmegen University Medical Centre St Radboud, Department of Medical Microbiology) using a glass feeder system as described by Ponnudurai et al.. After the second bleed, the monkey was cured by three daily intramuscular injections of 7.5 mg/kg chloroquine, monitored for parasite clearance 24 days after chloroquine treatment and returned to colony.
Mosquitoes were kept in climate chambers at 25 °C and 80% humidity and were fed 5% D -glucose on cotton pads daily. Seven days after feeding on the infected rhesus blood, oocyst numbers were determined in midguts of ten individuals, using 1% mercurochrome stain. Mosquitoes were given a second (uninfected) blood meal immediately afterwards to promote sporozoite maturation and invasion of the salivary glands. Sporozoites were isolated from the P. cynomolgi infected mosquitoes around day16 after the infected blood meal.
In vivo monkey infection and treatment procedures […]

CNC(=O)c1ccc(-c2cnc3cnc(C(=O)N(C)c4ccc(Cl)cc4)cn23)cc1 [KDU691]
weight loss, % of the initial weight [1]: 3.5%
radical-cure outcome ([2]; five daily oral doses of 20 mg/kg from day 11 p.i., 20 mg/kg): did not prevent relapse; also recorded: none of the animals treated with KDU691 were radically cured
Day p.i. to first relapse ([2]; group 691-RC, 20 mg/kg oral for 5 days from day 11 p.i. plus CQ, individual monkeys): 31 day p.i. and 32 day p.i.
day p.i. to first relapse, group mean ± SD ([2]; group 691-RC, 20 mg/kg oral for 5 days from day 11 p.i., control 25 ± 1.4): 31.8 ± 0.5 days p.i.
delay to relapse compared to the control group ([2]; group 691-RC, 20 mg/kg oral for 5 days, P = 0.00912, log rank test): 6.8 days
Day p.i. to primary parasitemia ([2]; group 691-RC, individual monkeys, baseline, before dosing started at day 11 p.i.): 9 day p.i.
